Series [1] deals with T1, Human UDP-glucose dehydrogenase (hUGDH) (Homo sapiens, UniProt O60701).
T1 sequence (O60701 1-494): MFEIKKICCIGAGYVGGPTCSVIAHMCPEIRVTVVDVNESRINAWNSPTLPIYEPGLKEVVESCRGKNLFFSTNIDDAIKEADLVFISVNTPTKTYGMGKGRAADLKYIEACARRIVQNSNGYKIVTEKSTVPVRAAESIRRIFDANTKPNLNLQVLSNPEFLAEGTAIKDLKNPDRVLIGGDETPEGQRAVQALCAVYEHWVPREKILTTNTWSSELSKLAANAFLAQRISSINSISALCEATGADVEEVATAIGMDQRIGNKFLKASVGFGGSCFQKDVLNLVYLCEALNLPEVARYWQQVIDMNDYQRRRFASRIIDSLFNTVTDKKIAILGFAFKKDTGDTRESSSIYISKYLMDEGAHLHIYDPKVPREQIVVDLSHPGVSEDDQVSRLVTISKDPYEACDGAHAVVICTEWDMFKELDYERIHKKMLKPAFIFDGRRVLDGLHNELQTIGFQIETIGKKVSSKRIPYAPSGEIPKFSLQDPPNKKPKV
Briefly: cryo-EM structure ([…] Å) of copurified complex, HPLC/NMR/MS ligand identification; Ki from global fit of competitive inhibition kinetics. It is filed as biochemical. The arrangement: gene UGDH; recombinant hUGDH, N-terminal His tag removed by TEV; hexamer.

Series [2] deals with T1, Human UDP-glucose dehydrogenase (hUGDH). Description: NADH absorbance ([…] nm) steady-state kinetics, global fit of UDP-Glc saturation curves. It is filed as biochemical. The arrangement: gene UGDH; recombinant unliganded hUGDH, His tag removed.
Substrate in series [3]: NC(=O)c1ccc[n+]([C@@H]2O[C@H](COP(=O)([O-])OP(=O)(O)OC[C@H]3O[C@@H](n4cnc5c(N)ncnc54)[C@H](O)[C@@H]3O)[C@@H](O)[C@H]2O)c1
Briefly: purified protein. It is filed as biochemical, Homo sapiens. As to conditions: NAD^+ binding (NB) domain; negative cooperativity; varied: cofactor.

Series [4] concerns the molecule itself. Description: cryo-EM structure; hUGDH:UX4O (copurified UDP-4-keto-xylose bound), 1 mg/mL, 20 mM Hepes pH 7.5, 100 mM NaCl, 1 mM DTT; C2 reconstruction at 2.38 Å, E-omega state.

Consider `O=C1CO[C@H](OP(=O)(O)OP(=O)(O)OC[C@H]2O[C@@H](n3ccc(=O)[nH]c3=O)[C@H](O)[C@@H]2O)[C@H](O)[C@H]1O` [UX4O, UDP-4-keto-xylose], for which the Ki in series [1] is 750 ± 60 nM.

In the case of `O=c1ccn([C@@H]2O[C@H](COP(=O)(O)OP(=O)(O)O[C@H]3OC[C@@H](O)[C@H](O)[C@H]3O)[C@@H](O)[C@H]2O)c(=O)[nH]1` [UDP-Xyl, UDP-xylose], in series [2], the inhibition constant (Ki) was found to be 440 ± 20 nM.

B1: Human UDP-glucose dehydrogenase (hUGDH) (enzyme)
chain: MFEIKKICCIGAGYVGGPTCSVIAHMCPEIRVTVVDVNESRINAWNSPTLPIYEPGLKEVVESCRGKNLFFSTNIDDAIKEADLVFISVNTPTKTYGMGKGRAADLKYIEACARRIVQNSNGYKIVTEKSTVPVRAAESIRRIFDANTKPNLNLQVLSNPEFLAEGTAIKDLKNPDRVLIGGDETPEGQRAVQALCAVYEHWVPREKILTTNTWSSELSKLAANAFLAQRISSINSISALCEATGADVEEVATAIGMDQRIGNKFLKASVGFGGSCFQKDVLNLVYLCEALNLPEVARYWQQVIDMNDYQRRRFASRIIDSLFNTVTDKKIAILGFAFKKDTGDTRESSSIYISKYLMDEGAHLHIYDPKVPREQIVVDLSHPGVSEDDQVSRLVTISKDPYEACDGAHAVVICTEWDMFKELDYERIHKKMLKPAFIFDGRRVLDGLHNELQTIGFQIETIGKKVSSKRIPYAPSGEIPKFSLQDPPNKKPKV
notes: UDP-glucose dehydrogenase, human, UniProtKB O60701; also called hUGDH:UX4O (the same protein with copurified UDP-4-keto-xylose); unliganded hUGDH; source: E. coli, purified (TALON column, TEV protease digestion, Superdex 200); not shown: histidine tag, N-terminal, cleaved
For B1, the Km in series [3] was 83.4 ± 10.4 µM. In addition, in series [4], the “stoichiometry N” value came to 6.

Usually Ki stands for a dissociation constant, usually derived from enzyme kinetics or from competition with a known ligand. A word on the Km: it is the concentration of substrate that gives half-maximal velocity. Broadly, the stoichiometry N is a count of units in the complex or per binding partner.
